Laboratory results as given in patent publication US9499868B2, “Determination of single nucleotide polymorphisms useful to predict response for glatiramer acetate” (TEVA PHARMACEUTICAL INDUSTRIES, LTD., priority 2011, dated 2016).
Where two headings read alike, the source gives them in different places.

Experiments:
[1] = test system: Relapsing-remitting multiple sclerosis patients (FORTE cohort); experiment: Annualized relapse rate in FORTE cohort patients genetically predicted as responders/non-responders by predictive models; type: in vivo, human
Method: Relapsing-remitting multiple sclerosis patients were treated with either 20 mg GA or 40 mg GA daily in the Teva FORTE clinical trial (www.medicalnewstoday.com/articles/48863.php). Blood samples were drawn from each subject that signed an informed consent for the pharmacogenetic study and analyzed as described below.
A clinical relapse was defined as the appearance of one or more new neurological abnormalities or the reappearance of one or more previously observed neurological abnormalities.
To find genotypic profiles that discriminate responders (R) from the non-responders (NR) to the treatment, we used a backward stepwise logistic regression procedure on the SNPs that emerged significant using the narrow definition (e.g., at p-value=10^−4 or lower). Other models were generated based on combinatorial optimization heuristics. Once a pool of models was created, selected models were chosen based on the low value of Akaike's Information Criterion (AIC) and low number SNPs in the model. The model chosen in the previous step went through “Leave one out” cross validation, searching for high values of the Area Under the ROC curve.
The response probability p(Response) of a specific patient was calculated according to the tables and formulas indicated for each specific model.
Patients with p(Response) above 0.5 were predicted to be responders and patients with p(Response) below 0.5 were predicted to be non-responders. When the model was retrospectively applied to the full cohort of 599 FORTE patients, we observed that the annualized relapse rate (ARR) in patients genetically predicted as responders was reduced by 62% compared to all patients, and by 76% compared to non-responders (p<0.0001). When we applied the model retrospectively to a second independent cohort of 79 patients, the model could identify subpopulations genetically predicted to be responders and non-responders with respectively lower (for responders) and higher (for non-responders) relapse rate. In the placebo-treated arm no specific pattern could be observed.
The models were retrospectively applied to the full cohort of 599 FORTE patients using different predictive thresholds. The ratios between the Annualized Relapse Rate (ARR) of genetically predicted responder patients (R) compared to the average ARR in genetically predicted non-responder patients (NR), and the ratios between the average ARE observed in the genetically predicted responder patients (R) compared to average ARR in the whole study population (All), according to each predictive threshold or two predictive thresholds, are presented in table 37. […]

[2] = test system: multiple sclerosis patients (European/Canadian study); experiment: Annualized relapse rate in European/Canadian study patients genetically predicted as responders/non-responders by FM1 model; type: in vivo, human; conditions: 0.8 threshold
Excerpt: In comparison, the average ARR in either placebo-treated patients or non treated patients (from European/Canadian study and CORAL, respectively) genetically predicted as responders was −7% and 26% lower, respectively, than in patients predicted as Non-Responders and 10% and 11% lower than in the whole study population. The reduction in average ARR by GA over placebo-treated patients in the responders population in the European/Canadian study was 79%.

RRMS patients = conditions: cited from earlier work
RRMS subjects = conditions: cited from earlier work
[3] = FM1 model, 0.8 threshold, FORTE
[4] = model GM2068, FORTE cohort, whole study population (All)
[5] = model GM2090, FORTE cohort, whole study population (All)
[6] = model GM2094, FORTE cohort, whole study population (All)
[7] = model GM2277, FORTE cohort, whole study population (All)

Substance: Glatiramer acetate [GA]
- average ARR in GA-treated predicted responders lower than in patients predicted as non-responders [1, 3]: 76%
- average ARR in GA-treated predicted responders lower than in the whole study population [1, 3]: 64%
- reduction of annualized relapse rate (ARR) in genetically predicted responders compared to all patients ([1]; FM1 model, p(Response) threshold 0.5, full cohort of 599 FORTE patients): 62%
- reduction of annualized relapse rate (ARR) in genetically predicted responders compared to non-responders ([1]; FM1 model, p(Response) threshold 0.5, full cohort of 599 FORTE patients, p<0.0001): 76%
- ARR Vs. all ([1]; model FM1, response prediction All): 100%
- ARR ([1]; model FM1, response prediction All (whole FORTE study population, threshold NA)): 0.241
- ARR Vs. all ([1]; model FM1a, response prediction All): 100%
- ARR ([1]; model FM1a, response prediction All (whole FORTE study population, threshold NA)): 0.245
- ARR Vs. all ([1]; model FM2, response prediction All): 100%
- ARR ([1]; model FM2, response prediction All (whole FORTE study population, threshold NA)): 0.245
- ARR Vs. all ([1]; model GM1003, response prediction All): 100%
- ARR ([1]; model GM1003, response prediction All (whole FORTE study population, threshold NA)): 0.26
- ARR Vs. all ([1]; model GM1006, whole study population (All)): 100%
- ARR ([1]; model GM1006, whole study population (All), FORTE cohort, 599 patients): 0.253
- ARR Vs. all ([1]; model GM1011, whole study population (All)): 100%
- ARR ([1]; model GM1011, whole study population (All), FORTE cohort, 599 patients): 0.256
- ARR Vs. all ([1]; model GM1012, whole study population (All)): 100%
- ARR ([1]; model GM1012, whole study population (All), FORTE cohort, 599 patients): 0.251
- ARR Vs. all ([1]; model GM2004, whole study population (All)): 100%
- ARR ([1]; model GM2004, whole study population (All), FORTE cohort, 599 patients): 0.255
- ARR [1, 4]: 0.256
- ARR Vs. all [1, 4]: 100%
- ARR [1, 5]: 0.254
- ARR Vs. all [1, 5]: 100%
- ARR [1, 6]: 0.251
- ARR Vs. all [1, 6]: 100%
- ARR [1, 7]: 0.258
- ARR Vs. all [1, 7]: 100%
- ARR ([1]; model GM2338, response prediction All (whole study population), threshold NA, FORTE cohort): 0.251
- ARR Vs. all ([1]; model GM2338, response prediction All, threshold NA, FORTE cohort): 100%
- ARR ([1]; model GM3102, response prediction All (whole study population), threshold NA, FORTE cohort): 0.263
- ARR Vs. all ([1]; model GM3102, response prediction All, threshold NA, FORTE cohort): 100%
- ARR ([1]; model GM3150, response prediction All (whole study population), threshold NA, FORTE cohort): 0.26
- ARR Vs. all ([1]; model GM3150, response prediction All, threshold NA, FORTE cohort): 100%
- ARR ([1]; model GM3332, response prediction All (whole study population), threshold NA, FORTE cohort): 0.262
- ARR Vs. all ([1]; model GM3332, response prediction All, threshold NA, FORTE cohort): 100%
- average ARR in GA-treated predicted responders lower than in patients predicted as non-responders [2]: 81%
- average ARR in GA-treated predicted responders lower than in the whole study population [2]: 77%
- reduction in average ARR by GA over placebo-treated patients in the responders population [2]: 79%
- response rate (RRMS patients; DRB1*1501 carriers): 81.8%
- response rate (RRMS patients; non-carriers of DRB1*1501): 39.4%
- response rate (RRMS patients; whole study population): 50%
- tolerability (RRMS subjects; daily standard dose of 20 mg): generally well tolerated
- reduction of relapse rate compared with placebo (RRMS subjects; largest controlled study, GA 20 mg, RRMS): 32%
- relapse rate (RRMS subjects; largest controlled study, under GA 20 mg (1.98 under placebo)): 1.34
- median cumulative number of Gd-enhancing lesions (RRMS subjects; over 9 months of treatment, 20 mg group (17 under placebo)): 11 lesions
